How the values were obtained:
cocklebur = experiment: Test B pre/postemergence cocklebur; type: in vivo, Xanthium strumarium
Summary of the method: (§1)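 Herbicidal effect was estimated by eye on a ten-point control scale after plants spent twelve to sixteen days in a greenhouse following soil or foliar treatment. Foliar sprays targeted plants at one to four leaves; all doses were formulated in a non-phytotoxic solvent with surfactant.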

crabgrass = experiment: Test B pre/postemergence crabgrass; type: in vivo, Digitaria sanguinalis
Summary of the method: as §1

wheat = experiment: Test B pre/postemergence wheat; type: in vivo, Triticum aestivum; details: for Wheat plant response rating (0 to 10 scale): 0 is no effect
Summary of the method: as §1

wild oat [1] = experiment: Test B pre/postemergence wild oat; type: in vivo, Avena fatua; details: for Wild oats plant response rating (0 to 10 scale): 0 is no effect
Summary of the method: as §1

goosegrass = experiment: Test D goosegrass; type: in vivo, Eleusine indica; details: Preemergence, 0 to 100 scale
Summary of the method: (§2)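 Values are visual plant-response ratings (0 no injury, 100 complete control) recorded 14 to 21 days after herbicide treatment, using a non-phytotoxic solvent mixture containing surfactant. Preemergence applications went to the surface of pots holding freshly sown seed in sandy loam.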

sandbur = experiment: Test D sandbur; type: in vivo, Cenchrus echinatus; details: Preemergence, 0 to 100 scale
Summary of the method: as §2

winter wheat [2] = experiment: Test E winter wheat; type: in vivo, Triticum aestivum; details: Postemergence
Summary of the method: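 Visually scored herbicidal effect relative to untreated plants, taken ~21 to 28 days post-application; compound in solvent with surfactant; postemergence sprays at the 1- to 4-leaf stage.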

blackgrass = experiment: Test E blackgrass; type: in vivo, Alopecurus myosuroides; details: Preemergence
green foxtail = experiment: Test E green foxtail; type: in vivo, Setaria viridis; details: Preemergence
Italian ryegrass = experiment: Test E Italian ryegrass; type: in vivo, Lolium multiflorum; details: Preemergence
winter wheat [3] = experiment: Test E winter wheat; type: in vivo, Triticum aestivum; details: Preemergence
wild oat [4] = experiment: Test E wild oat; type: in vivo, Avena fatua; details: Preemergence
winter barley = experiment: Test E winter barley; type: in vivo, Hordeum vulgare; details: Preemergence
[5] = Postemergence, Rate 125 g/ha, scale of 0 to 10 where 0 is no effect and 10 is complete control
[6] = Postemergence, Rate 250 g/ha, scale 0 to 10, 0 no effect, 10 complete control
[7] = Preemergence, Rate 62 g/ha, scale 0 to 10 (0 no effect, 10 complete control)
[8] = Preemergence, Rate 125 g/ha, scale 0 to 10 (0 no effect, 10 complete control)
[9] = Preemergence, Rate 250 g/ha, scale of 0 to 10 where 0 is no effect and 10 is complete control
[10] = Preemergence, Rate 500 g/ha, scale 0 to 10 (0 no effect, 10 complete control)
[11] = Rate 62 g/ha, Postemergence, scale of 0 to 10 where 0 is no effect and 10 is complete control
[12] = Rate 500 g/ha, Postemergence, scale 0 to 10, 0 no effect, 10 complete control
[13] = Preemergence, Rate 125 g/ha, 10 is complete control
[14] = Rate 250 g/ha, Postemergence, scale 0 to 10, 0 is no effect, 10 is complete control
[15] = Rate 16 g/ha, 0 no injury, 100 complete control
[16] = Rate 32 g/ha, 0 no injury, 100 complete control
[17] = Rate 64 g/ha, 0 no injury, 100 complete control
[18] = Rate 125 g/ha, 0 no injury, 100 complete control
[19] = Rate 31 g/ha, 0 to 100 scale, 0 no effect, 100 complete control
[20] = Rate 62 g/ha, 0 to 100 scale, 0 no effect, 100 complete control
[21] = Rate 125 g/ha, 0 to 100 scale (0 no effect, 100 complete control)
[22] = Preemergence, Rate 125 g/ha, 0 is no effect, 10 is complete control
[23] = Preemergence, Rate 250 g/ha, scale 0 to 10, 0 is no effect, 10 is complete control
[24] = Rate 500 g/ha, Postemergence, scale 0 to 10

CCn1c(=O)on(C(=O)N(c2ccc(F)cc2)C(C)C)c1=O [Compound 107]
Cocklebur plant response rating (cocklebur; [5]): 0
Cocklebur plant response rating (cocklebur; [6]): 1
Cocklebur plant response rating (cocklebur; [7]): 0
Plant response rating, Cocklebur (cocklebur; [8]): 0
Plant response rating, Cocklebur (cocklebur; [9]): 0
Cocklebur plant response rating (cocklebur; [10]): 0
Cocklebur plant response rating (cocklebur; [11]): 0
Cocklebur plant response rating (cocklebur; [12]): 3
Crabgrass plant response rating (crabgrass; [5]): 8
Crabgrass plant response rating (crabgrass; [6]): 9
Crabgrass plant response rating (crabgrass; [7]): 10
Plant response rating, Crabgrass (crabgrass; [8]): 10
Plant response rating, Crabgrass (crabgrass; [9]): 10
Crabgrass plant response rating (crabgrass; [10]): 10
Crabgrass plant response rating (crabgrass; [11]): 8
Crabgrass plant response rating (crabgrass; [12]): 9
Wheat plant response rating (wheat; [5]): 5
Wheat plant response rating (wheat; [7]): 0
Wheat plant response rating (0 to 10 scale) (wheat; [13]): 5
Plant response rating, Wheat (wheat; [9]): 7
Wheat plant response rating (wheat; [10]): 8
Wheat plant response rating (wheat; [11]): 2
Plant response rating, Wheat (wheat; [14]): 7
Wheat plant response rating (wheat; [12]): 8
Wild oats plant response rating (wild oat [1]; [5]): 3
Wild oats plant response rating (wild oat [1]; [7]): 9
Wild oats plant response rating (0 to 10 scale) (wild oat [1]; [13]): 9
Plant response rating, Wild oats (wild oat [1]; [9]): 10
Wild oats plant response rating (wild oat [1]; [10]): 10
Wild oats plant response rating (wild oat [1]; [11]): 0
Plant response rating, Wild oats (wild oat [1]; [14]): 5
Wild oats plant response rating (wild oat [1]; [12]): 9
Plant response rating, Goosegrass (goosegrass; [15]): 85
Plant response rating, Goosegrass (goosegrass; [16]): 98
Plant response rating, Goosegrass (goosegrass; [17]): 100
Plant response rating, Goosegrass (goosegrass; [18]): 100
Plant response rating, Goosegrass (goosegrass; Rate 250 g/ha): 100
Plant response rating, Goosegrass (goosegrass; Rate 500 g/ha): 100
Plant response rating, Sandbur (sandbur; [15]): 30
Plant response rating, Sandbur (sandbur; [16]): 30
Sandbur plant response rating (sandbur; [17]): 65
Sandbur plant response rating (sandbur; [18]): 98
Plant response rating, Sandbur (sandbur; Rate 250 g/ha): 100
Plant response rating, Sandbur (sandbur; Rate 500 g/ha): 100
Plant response rating, Wheat (winter) (winter wheat [2]; [19]): 50
Plant response rating, Wheat (winter) (winter wheat [2]; Rate 62 g/ha, 0 to 100 scale): 40
Plant response rating, Wheat (winter) (winter wheat [2]; Rate 125 g/ha, 0 to 100 scale): 30
Plant response rating, Wheat (winter) (winter wheat [2]; Rate 250 g/ha, 0 to 100 scale (0 no effect, 100 complete control)): 0
Plant response rating, Blackgrass (blackgrass; [19]): 30
Plant response rating, Blackgrass (blackgrass; [20]): 60
Plant response rating, Blackgrass (blackgrass; [21]): 85
Plant response rating, Blackgrass (blackgrass; Rate 250 g/ha, 0 to 100 scale): 80
Plant response rating, Green foxtail (green foxtail; [19]): 55
Plant response rating, Green foxtail (green foxtail; [20]): 80
Plant response rating, Green foxtail (green foxtail; [21]): 100
Plant response rating, Green foxtail (green foxtail; Rate 250 g/ha, 0 to 100 scale): 95
Plant response rating, I. Ryegrass (Italian ryegrass; [19]): 40
Plant response rating, I. Ryegrass (Italian ryegrass; [20]): 55
Plant response rating, I. Ryegrass (Italian ryegrass; [21]): 98
Plant response rating, I. Ryegrass (Italian ryegrass; Rate 250 g/ha, 0 to 100 scale): 95
Plant response rating, Wheat (winter) (winter wheat [3]; [19]): 0
Plant response rating, Wheat (winter) (winter wheat [3]; [20]): 50
Plant response rating, Wheat (winter) (winter wheat [3]; [21]): 30
Plant response rating, Wheat (winter) (winter wheat [3]; Rate 250 g/ha, 0 to 100 scale): 40
Plant response rating, Wild oat (wild oat [4]; [19]): 20
Plant response rating, Wild oat (wild oat [4]; [20]): 50
Plant response rating, Wild oat (wild oat [4]; [21]): 60
Plant response rating, Barley (winter) (winter barley; [19]): 10
Plant response rating, Barley (winter) (winter barley; [20]): 20
Plant response rating, Barley (winter) (winter barley; [21]): 20
Plant response rating, Barley (winter) (winter barley; Rate 250 g/ha, 0 to 100 scale): 15

C=C(C)Cn1c(=O)on(C(=O)N(c2ccc(F)cc2)C(C)C)c1=O [Compound 139]
Cocklebur plant response rating (cocklebur; [5]): 0
Cocklebur plant response rating (cocklebur; [7]): 0
Cocklebur plant response rating (0 to 10 scale) (cocklebur; [22]): 0
Cocklebur plant response rating (cocklebur; [23]): 0
Cocklebur plant response rating (cocklebur; [10]): 0
Cocklebur plant response rating (cocklebur; [11]): 0
Plant response rating, Cocklebur (cocklebur; [14]): 2
Cocklebur plant response rating (cocklebur; [24]): 2
Crabgrass plant response rating (crabgrass; [5]): 8
Crabgrass plant response rating (crabgrass; [7]): 7
Crabgrass plant response rating (0 to 10 scale) (crabgrass; [22]): 10
Crabgrass plant response rating (crabgrass; [23]): 10
Crabgrass plant response rating (crabgrass; [10]): 10
Crabgrass plant response rating (crabgrass; [11]): 8
Plant response rating, Crabgrass (crabgrass; [14]): 9
Crabgrass plant response rating (crabgrass; [24]): 9
Wheat plant response rating (wheat; [5]): 2
Wheat plant response rating (wheat; [7]): 0
Wheat plant response rating (0 to 10 scale) (wheat; [13]): 0
Wheat plant response rating (wheat; [23]): 2
Wheat plant response rating (wheat; [10]): 4
Wheat plant response rating (wheat; [11]): 2
Plant response rating, Wheat (wheat; [14]): 4
Wheat plant response rating (wheat; [24]): 4
Wild oats plant response rating (wild oat [1]; [5]): 2
Wild oats plant response rating (wild oat [1]; [7]): 3
Wild oats plant response rating (0 to 10 scale) (wild oat [1]; [13]): 7
Wild oats plant response rating (wild oat [1]; [23]): 8
Wild oats plant response rating (wild oat [1]; [10]): 9
Wild oats plant response rating (wild oat [1]; [11]): 2
Plant response rating, Wild oats (wild oat [1]; [14]): 4
Wild oats plant response rating (wild oat [1]; [24]): 4
Plant response rating, Goosegrass (goosegrass; [17]): 98
Sandbur plant response rating (sandbur; [17]): 40

Reference: patent US6737383B1, “Herbicidal oxadiazolidines” (priority 1999, dated 2004)
